Molecular target: T1, RORγt (Homo sapiens, UniProt P51449)
T1 construct: purchased reporter-cell kit
T1 sequence (P51449 269-508 limits assumed): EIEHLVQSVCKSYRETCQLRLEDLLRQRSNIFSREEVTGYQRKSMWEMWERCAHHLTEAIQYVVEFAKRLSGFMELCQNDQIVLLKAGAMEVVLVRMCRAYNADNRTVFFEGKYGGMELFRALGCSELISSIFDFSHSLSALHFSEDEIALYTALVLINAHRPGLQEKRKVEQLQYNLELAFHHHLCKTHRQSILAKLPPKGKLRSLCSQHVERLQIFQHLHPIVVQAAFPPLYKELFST
Assay: Gal4 ligand binding assay (RORγt Gal fusion reporter assay)
Format: cell-based
Settings: inverse agonists, luciferase reporter, 24h
Method: Compounds of the present invention were tested in a human RORγ ligand binding assay using a commercially available cell based ligand binding reporter assay in 96-well format (Cat #IB04001, INDIGO Biosciences, State College, Pa.). The N-terminal DNA binding domains (DBD) of the native RORγ and RORγt receptors have been substituted with that of the yeast GAL4-DBD and stably transfected in […] cells that also stably express luciferase under the regulation by upstream activation sequence of yeast Gal4. These cells constitutively express high level RORγ activity due to binding of endogenous co-factors. Both agonist and inverse agonist activity can be detected. The assay was performed according to kit manufacturer's instructions as follows. 10 mM compound stocks were diluted serially 1:3 with DMSO and further diluted with provided media to generate 10 titration points from 60 μM to 3 nM. These treatment conditions were added to the plates as 2× media in 100 μL volume. Each plate includes a positive control with 10 titration points as well as 6negative control wells with vehicle only, with final DMSO concentration of 0.2%. RORγ reporter cells were rapidly thawed and added to the plates in 100 μL volume. The plates were incubated for 24h in a 37° C. humidified 5% CO2incubator. Media was removed before the addition of room temperature luciferous detection substrate. After 5 minute incubation, relative light units (RLUs) were quantified using a plate reading luminometer. Data was normalized to positive control wells with only […]. Before establishing internal controls, ursolic acid was used as control.

SMILES	IC50 [nM]
Cc1cc(CN2CC3CCC(C2)N3C(=O)Cc2c(F)cccc2F)ccc1-c1ccc(C(O)(C(F)(F)F)C(F)(F)F)cc1 [Example 74, 2-(2,6-difluorophenyl)-1-(3-((4′-(1,1,1,3,3,3-hexafluoro-2-hydroxypropan-2-yl)-2-methyl-[1,1′-biphenyl]-4-yl)methyl)-3,8-diazabicyclo[3.2.1]octan-8-yl)ethan-1-one]	> 250
OC(c1ccc(-c2ccc(CN3CC4CCC(C3)N4Cc3ccncc3)cc2F)cc1)(C(F)(F)F)C(F)(F)F [Example 59, 1,1,1,3,3,3-hexafluoro-2-(2′-fluoro-4′-((8-(pyridin-4-ylmethyl)-3,8-diazabicyclo[3.2.1]octan-3-yl)methyl)-[1,1′-biphenyl]-4-yl)propan-2-ol]	> 250
CCc1cc(CN2CC3COCC(C2)N3S(C)(=O)=O)ccc1-c1ccc(C(O)(C(F)(F)F)C(F)(F)F)cc1 [Example 12, 2-(2′-ethyl-4′-((9-(methylsulfonyl)-3-oxa-7,9-diazabicyclo[3.3.1]nonan-7-yl)methyl)-[1,1′-biphenyl]-4-yl)-1,1,1,3,3,3-hexafluoropropan-2-ol]	50 to 250
CCc1cc(CN2CC3CCC(C2)N3S(C)(=O)=O)ccc1-c1ccc(C(O)(C(F)(F)F)C(F)(F)F)cc1CC [Example 25, 2-(2,2′-diethyl-4′-((8-(methylsulfonyl)-3,8-diazabicyclo[3.2.1]octan-3-yl)methyl)-[1,1′-biphenyl]-4-yl)-1,1,1,3,3,3-hexafluoropropan-2-ol]	< 50
CCc1cc(CN2CC3CCC(C2)N3S(C)(=O)=O)ccc1-c1ccc(C(O)(C(F)(F)F)C(F)(F)F)cc1F [Example 24, 2-(2′-ethyl-2-fluoro-4′-((8-(methylsulfonyl)-3,8-diazabicyclo[3.2.1]octan-3-yl)methyl)-[1,1′-biphenyl]-4-yl)-1,1,1,3,3,3-hexafluoropropan-2-ol]	< 50
Cc1cc(CN2CC3CCC(C2)N3Cc2ccncc2F)ccc1-c1ccc(C(O)(C(F)(F)F)C(F)(F)F)cc1 [Example 63, 1,1,1,3,3,3-hexafluoro-2-(4′-((8-((3-fluoropyridin-4-yl)methyl)-3,8-diazabicyclo[3.2.1]octan-3-yl)methyl)-2′-methyl-[1,1′-biphenyl]-4-yl)propan-2-ol]	50 to 250
COCCC(=O)N1C2CCC1CN(Cc1ccc(-c3ccc(C(O)(C(F)(F)F)C(F)(F)F)cc3)c(C)c1)C2 [Example 45, 1-(3-((4′-(1,1,1,3,3,3-hexafluoro-2-hydroxypropan-2-yl)-2-methyl-[1,1′-biphenyl]-4-yl)methyl)-3,8-diazabicyclo[3.2.1]octan-8-yl)-3-methoxypropan-1-one]	> 250
CCc1cc(CN2CC3CCC(C2)N3C(C)=O)ccc1-c1ccc(C(O)(C(F)(F)F)C(F)(F)F)cc1 [Example 39, 1-(3-((2-ethyl-4′-(1,1,1,3,3,3-hexafluoro-2-hydroxypropan-2-yl)-[1,1′-biphenyl]-4-yl)methyl)-3,8-diazabicyclo[3.2.1]octan-8-yl)ethan-1-one]	< 50
CCc1cc(CN2CC3CCC(C2)N3S(C)(=O)=O)ccc1-c1ccc(C(O)(C(F)(F)F)C(F)(F)F)cc1C(N)=O [Example 31, 2′-ethyl-4-(1,1,1,3,3,3-hexafluoro-2-hydroxypropan-2-yl)-4′-((8-(methylsulfonyl)-3,8-diazabicyclo[3.2.1]octan-3-yl)methyl)-[1,1′-biphenyl]-2-carboxamide]	> 250
Cc1cc(CN2CC3CC2CN3Cc2ccncc2)ccc1-c1ccc(C(O)(C(F)(F)F)C(F)(F)F)cc1 (stereo not drawn) [Example 72, 1,1,1,3,3,3-hexafluoro-2-(2′-methyl-4′-((5-(pyridin-4-ylmethyl)-2,5-diazabicyclo[2.2.1]heptan-2-yl)methyl)-[1,1′-biphenyl]-4-yl)propan-2-ol]	> 250
OC(c1ccc(-c2ccc(CN3CC4CCC(C3)N4Cc3ccncc3)cc2)cc1)(C(F)(F)F)C(F)(F)F [Example 1, 1,1,1,3,3,3-hexafluoro-2-(4′-((8-(pyridin-4-ylmethyl)-3,8-diazabicyclo[3.2.1]octan-3-yl)methyl)-[1,1′-biphenyl]-4-yl)propan-2-ol]	50 to 250
OC(c1ccc(-c2ccc(CN3CC4CCC(C3)N4Cc3ccncc3)cc2C(F)(F)F)cc1)(C(F)(F)F)C(F)(F)F [Example 58, 1,1,1,3,3,3-hexafluoro-2-(4′-((8-(pyridin-4-ylmethyl)-3,8-diazabicyclo[3.2.1]octan-3-yl)methyl)-2′-(trifluoromethyl)-[1,1′-biphenyl]-4-yl)propan-2-ol]	< 50
CS(=O)(=O)N1C2CCC1CN(Cc1ccc(-c3ccc(C(O)(C(F)(F)F)C(F)(F)F)cc3)c(F)c1)C2 [Example 61, 1,1,1,3,3,3-hexafluoro-2-(2′-fluoro-4′-((8-(methylsulfonyl)-3,8-diazabicyclo[3.2.1]octan-3-yl)methyl)-[1,1′-biphenyl]-4-yl)propan-2-ol]	> 250
CCc1cc(CN2CC3CCC(C2)N3S(C)(=O)=O)ccc1-c1ccc(C(O)(C(F)(F)F)C(F)(F)F)cn1 [Example 32, 2-(6-(2-ethyl-4-((8-(methylsulfonyl)-3,8-diazabicyclo[3.2.1]octan-3-yl)methyl)phenyl)pyridin-3-yl)-1,1,1,3,3,3-hexafluoropropan-2-ol]	50 to 250
Cc1cc(C(O)(C(F)(F)F)C(F)(F)F)ccc1-c1ccc(CN2CC3CCC(C2)N3S(C)(=O)=O)cc1C(C)C [Example 35, 1,1,1,3,3,3-hexafluoro-2-(2′-isopropyl-2-methyl-4′-((8-(methylsulfonyl)-3,8-diazabicyclo[3.2.1]octan-3-yl)methyl)-[1,1′-biphenyl]-4-yl)propan-2-ol]	50 to 250
CC(C)c1cc(CN2CC3CCC(C2)N3S(C)(=O)=O)c(F)cc1-c1ccc(C(O)(C(F)(F)F)C(F)(F)F)cc1Cl [Example 15, 2-(2-chloro-5′-fluoro-2′-isopropyl-4′-((8-(methylsulfonyl)-3,8-diazabicyclo[3.2.1]octan-3-yl)methyl)-[1,1′-biphenyl]-4-yl)-1,1,1,3,3,3-hexafluoropropan-2-ol]	< 50
CCc1cc(CN2C3CCC2CN(S(C)(=O)=O)C3)ccc1-c1ccc(C(O)(C(F)(F)F)C(F)(F)F)cc1Cl [Example 7, 2-(2-chloro-2′-ethyl-4′-((3-(methylsulfonyl)-3,8-diazabicyclo[3.2.1]octan-8-yl)methyl)-[1,1′-biphenyl]-4-yl)-1,1,1,3,3,3-hexafluoropropan-2-ol]	< 50
Cc1cc(CN2CC3CCC(C2)N3S(=O)(=O)CC(F)(F)F)ccc1-c1ccc(C(O)(C(F)(F)F)C(F)(F)F)cc1 [Example 67, 1,1,1,3,3,3-hexafluoro-2-(2′-methyl-4′-((8-((2,2,2-trifluoroethyl)sulfonyl)-3,8-diazabicyclo[3.2.1]octan-3-yl)methyl)-[1,1′-biphenyl]-4-yl)propan-2-ol]	> 250
Cc1cc(CN2CC3CCC(C2)N3C(=O)C2CCOCC2)ccc1-c1ccc(C(O)(C(F)(F)F)C(F)(F)F)cc1 [Example 43, (3-((4′-(1,1,1,3,3,3-hexafluoro-2-hydroxypropan-2-yl)-2-methyl-[1,1′-biphenyl]-4-yl)methyl)-3,8-diazabicyclo[3.2.1]octan-8-yl)(tetrahydro-2H-pyran-4-yl)methanone]	50 to 250
CCc1cc(CN2CC3CC2CN3S(C)(=O)=O)ccc1-c1ccc(C(O)(C(F)(F)F)C(F)(F)F)cc1 (stereo not drawn) [Example 38, 2-(2′-ethyl-4′-((5-(methylsulfonyl)-2,5-diazabicyclo[2.2.1]heptan-2-yl)methyl)-[1,1′-biphenyl]-4-yl)-1,1,1,3,3,3-hexafluoropropan-2-ol]	< 50
CCc1cc(CN2CC3CCC(C2)N3S(C)(=O)=O)ccc1-c1ccc(C(O)(C(F)(F)F)C(F)(F)F)cc1C [Example 34, 2-(2′-ethyl-2-methyl-4′-((8-(methylsulfonyl)-3,8-diazabicyclo[3.2.1]octan-3-yl)methyl)-[1,1′-biphenyl]-4-yl)-1,1,1,3,3,3-hexafluoropropan-2-ol]	< 50
Cc1cc(CN2CC3CCC(C2)N3Cc2ccc(F)cc2)ccc1-c1ccc(C(O)(C(F)(F)F)C(F)(F)F)cc1 [Example 77, 1,1,1,3,3,3-hexafluoro-2-(4′-((8-(4-fluorobenzyl)-3,8-diazabicyclo[3.2.1]octan-3-yl)methyl)-2′-methyl-[1,1'-biphenyl]-4-yl)propan-2-ol]	> 250
CCc1cc(CN2CC3CCC2CN3S(C)(=O)=O)ccc1-c1ccc(C(O)(C(F)(F)F)C(F)(F)F)cc1 (stereo not drawn) [Example 37, 2-(2′-ethyl-4′-((5-(methylsulfonyl)-2,5-diazabicyclo[2.2.2]octan-2-yl)methyl)-[1,1′-biphenyl]-4-yl)-1,1,1,3,3,3-hexafluoropropan-2-ol]	50 to 250
CCc1c(-c2ccc(C(O)(C(F)(F)F)C(F)(F)F)cc2)cc(F)c(CN2CC3CCC(C2)N3S(C)(=O)=O)c1F [Example 14]	< 50

— US11230555B2, “Bicyclic RORγ modulators” (Escalier Biosciences B.V., priority 2018, dated 2022)
